According to ChEMBL document CHEMBL1614632, “Trend analysis of a database of intravenous pharmacokinetic parameters in humans for 670 drug compounds” (Drug Metab Dispos, 2008):

Legend:
clinical [1] = details: human, in vivo, iv
clinical [2] = details: human, in vivo, iv, t1/2
clinical [3] = details: human, in vivo, iv, Vdss
[4] = human, in vivo, iv
[5] = human, in vivo, iv; remark: listed apart in the source
[6] = human, in vivo, iv; remark: listed apart in the source
[7] = human, in vivo, iv; remark: listed apart in the source
[8] = human, in vivo, iv; remark: listed apart in the source

Molecule | MRT (clinical [1]) | half-life (clinical [2]) | Vd (clinical [3]) | fu [4] | MRT [5] | CL [6] | t1/2 [7] | Vdss [8]
O=C(CCCN1CCC(O)(c2ccc(Cl)cc2)CC1)c1ccc(F)cc1 [HALOPERIDOL] | 36 h | 35 h | 17 L/kg | 0.08 | – | – | – | –
CARBOPLATIN | – | – | – | 1 | 3 h | 1.5 mL/min/kg | 2 h | 0.26 L/kg
GADOVERSETAMIDE | – | – | – | 1 | 2.2 h | 1.2 mL/min/kg | 1.7 h | 0.16 L/kg
GENTAMICIN | – | – | – | 1 | 5.5 h | – | 4.7 h | –
